The values that follow come from article PMC7305796 (Antiviral research, 2019).

For data set [1] the following is noted: mouse.
The test system of data set [2] is VEEV TC-83. The note with it: mouse, in vivo; cited from earlier work.
The conditions of data set [3]: mouse, microsomes.
Data set [4] has as its system VEEV Trinidad Donkey (TrD). Further details: species or system BALB/c mice. The note with it: mouse, in vivo.
Data set [5] deals with VEEV TC-83. The experiment in a line: microbe, parasite or virus in culture. Type of data set: cell-based. The note with it: Venezuelan equine encephalitis virus, Vero 76, 48 h, read-out: VEEV EC50.
The conditions of data set [6]: mouse. The source holds these as a separate data set.
In data set [7] the test system is VEEV TC-83. Type of data set: cell-based, Venezuelan equine encephalitis virus.

For the molecule `CN1CCN(C)/C(=N/c2ccc([N+](=O)[O-])cc2C(=O)Nc2ccccc2)C1` [ML336, (E)-2-((1,4-dimethylpiperazin-2-ylidene)amino)-5-nitro-N-phenylbenzamide], in data set [1], the “plasma protein binding, % bound at 1 μM” value is recorded as 85.0 / 77.0% and the “plasma protein binding, % bound at 10 μM” value is 85.0 / 77.0%. Further, the survival rate in data set [2] is on record as 71%. The “Microsomal stability, % parent after 1h” value in data set [3] amounted to 42.9%. In addition, in data set [4], the “protection of mice (survival)” value is on record as 100%. Also, the EC50 (as a rule, the concentration that produces a half-maximal response) in data set [5] was 32 ± 5 nM. Also, the “Plasma stability, % parent after 3h” value in data set [6] was 65.4%. Also, in data set [7], the “VEEV log titer reduction” value was 7.0 ± 0.4 log.
